Assay results: patent US20190211397A1, “INHIBITORS OF GPR132 FOR USE IN PREVENTING AND/OR TREATING CHEMOTHERAPY-INDUCED NEUROPATHIC PAIN” (Fraunhofer-Gesellschaft zur Foerderung der angewandten …, priority 2016, published 2019)
“Also recorded” adds a separate entry of the source.

How the values were obtained:
TRPA1 = biological target: T1, TRPA1 (Mus musculus, UniProt Q8BLA8); experiment: Calcium imaging of DRG neurons: TRPA1 sensitization (allyl isothiocyanate); type: cell-based, mice; settings: activated with AITC 50 μM
T1 construct: endogenous in cells; host or cells: primary murine dorsal root ganglion (DRG) neurons
T1 sequence (Q8BLA8 whole entry): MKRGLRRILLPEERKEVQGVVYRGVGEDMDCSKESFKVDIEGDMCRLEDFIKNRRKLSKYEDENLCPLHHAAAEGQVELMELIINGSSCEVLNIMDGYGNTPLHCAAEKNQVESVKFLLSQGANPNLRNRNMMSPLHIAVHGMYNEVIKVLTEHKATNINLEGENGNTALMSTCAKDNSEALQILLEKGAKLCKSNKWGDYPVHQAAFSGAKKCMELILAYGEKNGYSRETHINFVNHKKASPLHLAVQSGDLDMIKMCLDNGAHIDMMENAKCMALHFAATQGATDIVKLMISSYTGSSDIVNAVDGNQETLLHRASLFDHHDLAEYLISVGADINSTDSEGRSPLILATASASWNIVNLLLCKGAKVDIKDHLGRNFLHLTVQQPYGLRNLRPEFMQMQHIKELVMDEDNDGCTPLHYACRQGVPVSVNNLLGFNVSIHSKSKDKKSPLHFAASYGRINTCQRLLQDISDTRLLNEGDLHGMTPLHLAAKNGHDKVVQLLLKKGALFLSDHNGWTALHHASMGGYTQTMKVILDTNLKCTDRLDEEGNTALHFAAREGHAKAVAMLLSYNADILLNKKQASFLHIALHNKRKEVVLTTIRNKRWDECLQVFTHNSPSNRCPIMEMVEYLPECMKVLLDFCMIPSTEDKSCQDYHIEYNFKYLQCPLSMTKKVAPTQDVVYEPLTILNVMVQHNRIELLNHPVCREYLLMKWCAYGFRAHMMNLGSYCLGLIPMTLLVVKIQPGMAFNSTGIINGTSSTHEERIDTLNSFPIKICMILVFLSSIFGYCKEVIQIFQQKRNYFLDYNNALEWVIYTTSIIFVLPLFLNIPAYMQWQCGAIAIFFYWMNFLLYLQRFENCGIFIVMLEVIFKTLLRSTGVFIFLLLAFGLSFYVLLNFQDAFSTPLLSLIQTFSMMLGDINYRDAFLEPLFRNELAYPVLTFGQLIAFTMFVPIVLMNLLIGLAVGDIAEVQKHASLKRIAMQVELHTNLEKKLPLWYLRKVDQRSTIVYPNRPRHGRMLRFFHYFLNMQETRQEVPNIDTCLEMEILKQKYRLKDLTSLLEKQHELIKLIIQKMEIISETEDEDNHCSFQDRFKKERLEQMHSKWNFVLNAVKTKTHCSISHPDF
Method: DRG primary cultures were prepared as described previously (Brenneis et al., 2011 b). Briefly, twenty to thirty murine dorsal roots ganglia (DRGs) were dissected from spinal segments and transferred directly into ice-cold Hanks' balanced salt solution with CaCI2 and MgCI2 (lnvitrogen, Carlsbad, Calif., USA). The DRGs were than incubated with Neurobasal Medium (lnvitrogen, Carlsbad, Calif., USA) containing 500 U/ml collagenase (Sigma, Deisenhofen, Germany) and 2.5 U/ml dispase II (Roche, Mannheim, Germany) for 75 mins at 37° C. After removal of the collagenase/dispase-solution cells were washed three times with medium containing 10% FCS, penicillin/streptomycin/gentamycin (lnvitrogen, Carlsbad, Calif., USA) and incubated in 0.05% trypsin for 10 min at 37° C. After two washing steps, the cells were mechanically dissociated with a 1 ml pipette and plated on Poly-L-lysine (Sigma) coated coverslips. […]
Calcium-imaging experiments were performed with a Leica calcium-imaging setup, consisting of a Leica DMI 4000 b inverted microscope equipped with a DFC360 FX (CCD) camera, Fura-2 filters, and an N-Plan 10×/0.25 Ph1 objective (all from Leica), was used. […] For each experiment, an area with large cell numbers 24 h after preparation (see DRG primary cultures) was chosen and 40-110 cells were monitored simultaneously. […]

TRPV1 = experiment: Whole-cell voltage clamp of DRG neurons, capsaicin-induced inward current; type: cell-based, mice; settings: DRG neurons pre-treated with 9-HODE (200 nM, 3 min), capsaicin 1 μM
Method: All recordings were carried out at room temperature within 48 hour of plating DRG neurons. Whole-cell voltage clamp recordings were made with an Axopatch 200A amplifier (Molecular Devices) and patch pipettes with resistances of 2-3 MΩ. Pipette solution was 5 mM NaCl, 140 mM KCl, 0.5 mM CaCl2, 2 mM MgCl2, 5 mM EGTA, 10 mM HEPES, and 3 mM Na2ATP, pH 7.2, adjusted with NaOH. The external solution was 140 mM NaCl, 5 mM KCl, 2 mM CaCl2, 2 mM MgCl2, 10 mM HEPES, and 10 mM D-glucose, pH 7.4, adjusted with NaOH (Sigma). Command protocols were generated and data was digitized with a Digidata 1440A A/D interface with pCLAMP10 software. We used gravity perfusion system connected with perfusion pencil (AutoMate Scientific) to externally apply 9-HODE or capsaicin to the cells.

DRG neurons = experiment: Neuronal CGRP release from DRG neurons; type: cell-based, mice; settings: 9-HODE 1 μM with capsaicin 400 nM, 10 min
Method: For the determination of neuronal calcitonin gene-related peptide (CGRP) release, dorsal root ganglia (DRGs) neurons were isolated from mice as previously described (Brenneis et al., 2011 a). Briefly, DRG cultures were stimulated for 10 m in with 1 μM (±) 9-HODE (Cayman) alone or in combination with 400 nM capsaicin (Sigma). Cultures supplemented with capsaicin alone served as control. CGRP concentrations in supernatants were analysed utilizing the rat CGRP Enzyme ImmunoAssay Kit (SPI-Bio, Montigny, France) according to the manufacturer's instructions. Absorption was measured with the help of the Spectra Max 250 (Molecular Devices, lsmaning, Germany)

G2A receptor (GPR132) [1] = biological target: T2, G2A receptor (GPR132) (Homo sapiens, UniProt Q9UNW8); settings: heterologous expression system; cited from earlier work
T2 sequence (Q9UNW8 1-380): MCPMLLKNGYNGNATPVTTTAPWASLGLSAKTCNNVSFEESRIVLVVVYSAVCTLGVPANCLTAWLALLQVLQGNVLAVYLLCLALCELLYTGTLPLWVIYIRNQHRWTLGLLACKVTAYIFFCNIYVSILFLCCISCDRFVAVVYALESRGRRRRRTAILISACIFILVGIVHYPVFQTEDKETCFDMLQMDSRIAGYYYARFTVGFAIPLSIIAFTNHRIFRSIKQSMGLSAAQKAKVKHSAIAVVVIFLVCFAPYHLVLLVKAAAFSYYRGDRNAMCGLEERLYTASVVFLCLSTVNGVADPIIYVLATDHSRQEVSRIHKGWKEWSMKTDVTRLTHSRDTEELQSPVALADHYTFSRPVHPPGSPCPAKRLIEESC

G2A receptor (GPR132) [2] = biological target: T2, G2A receptor (GPR132); experiment: Calcium in HEK cells transfected with G2A (FURA-2); type: cell-based; design: expressed in transfected cells; settings: HEK cells overexpressing G2A, 9-HODE 1 μM
G2A receptor (GPR132) [3] = biological target: T2, G2A receptor (GPR132); experiment: Calcium flux in COS-1 cells cotransfected with aequorin and G2A; type: cell-based; design: expressed in transfected cells; settings: COS-1 cells transfected with GPR132 and aequorin, 10 nM-10 μM
Method: For studies of heterologously expressed G2A receptor, COS-1 cells were seeded in white walls-clear bottom 96-well plates and transfected with a plasmid encoding a calcium-sensitive bioluminescent fusion protein between aequorin and GFP (Baubet et al., 2000) together with plasmid containing cDNA for G2A or control DNA (empty vector, mock) at a concentration of 50 ng/well by using FuGENE 6 reagent (Promega) following manufacturer's instructions. Forty eight hours later, cells were loaded with 5 μM coelenterazine h (Invitrogen) in HBSS containing 1.8 mM CaCl2 and 10 mM glucose for 2 h at 37° C. Measurements were performed by using a luminometric plate reader (Flexstation 3). The area under each calcium transient was calculated by using SoftMaxPro software and expressed as area under the curve (AUC).

## CCCCC/C=C\C=C\C(O)CCCCCCCC(=O)O (stereo not drawn) [9-HODE, 9-hydroxy-10E,12Z-octadecadienoic acid]
TRPA1
  sensitizing effects for TRPA1: no sensitizing effects
TRPV1
  capsaicin-induced inward current: significantly increased
DRG neurons
  capsaicin-dependent CGRP release: increased the capsaicin-dependent CGRP release significantly
G2A receptor (GPR132) [1]
  activation of the G2A receptor: can activate the G2A receptor
G2A receptor (GPR132) [2]
  intracellular calcium concentrations: caused calcium-release; also recorded: increased intracellular calcium concentrations
G2A receptor (GPR132) [3]
  calcium release (bioluminescence of aequorin): caused calcium release in a concentration-dependent manner
